The source of these data is patent publication US20240400555A1 (Initial Therapeutics, Inc., priority 2023, published 2024).

The first experiment concerns MV-4-11 cells. The experiment can be described thus: Cell Viability Assay in MV-4-11 Cells. The settings on record: Homo sapiens, MV4-11, 72 h. It is filed as cell-based. On the procedure:
MV-4-11 cells (ATCC) were seeded into sterile 96-well flat clear bottom white polystyrene TC-treated microplates (Corning) at 7,000 cells/well in 150 μL complete growth medium (Iscove's Modified Dulbecco's Medium (IMDM) (Gibco), 10% Heat Inactivated Fetal Bovine Serum (HyClone), 1% Penicillin-Streptomycin-L-Glutamine (HyClone), 1% GlutaMAX (Gibco)). […] After 72 h incubation, plates were removed from incubators and allowed to equilibrate to room temperature (˜10 min) before adding 50 μL per well Cell-Titer Glo reagent (Promega) using a WellJet (Integra Biosciences) dispenser. Plates were then incubated at room temperature for 2-20 min prior to measurement of luminescence on an Envision (Perkin Elmer) plate reader. Data were normalized to DMSO (100% viability) and analyzed using a non-linear four-parameter curve fit.
For orientation: IC50 means the point on the concentration scale where inhibition reaches its midpoint. The compound `Cc1csc(-c2ccc(C(=O)N(c3nccc4cccc(C)c34)[C@@H]3CCCNC3)c(F)c2)n1` [Example 315, (R)-2-fluoro-N-(8-methylisoquinolin-1-yl)-4-(4-methylthiazol-2-yl)-N-(piperidin-3-yl)benzamide] had an IC50 of 240 nM. On the same count and under the same terms, as for `NC(=O)/C=C/c1cccc2ccnc(N(C(=O)c3ccc(-n4nnc5cccnc54)cc3F)[C@@H]3CCCNC3)c12` [Example 320, N-[8-[(E)-3-amino-3-oxo-prop-1-enyl]-1-isoquinolyl]-2-fluoro-N-[(3R)-3-piperidyl]-4-(triazolo[4.5-b]pyridin-3-yl)benzamide], the figure is 5.6 nM. Consider `Cc1n[nH]c(-c2ccc(C(=O)N(c3nccc4cccc(C)c34)[C@@H]3CCCNC3)c(F)c2)n1` [Example 324, (R)-2-fluoro-4-(3-methyl-1H-1,2,4-triazol-5-yl)-N-(8-methylisoquinolin-1-yl)-N-(piperidin-3-yl) benzamide], for which it took 1500 nM to reach half-maximal inhibition (IC50). Still for that read-out and setting: to `Cc1cccc2ccnc(N(C(=O)c3ccc(C#N)c(-c4ccc(-c5ccccc5)cc4)c3)[C@@H]3CCCNC3)c12` [Example 327, 4-cyano-N-(8-methyl-1-isoquinolyl)-3-(4-phenylphenyl)-N-[(3R)-3-piperidyl]benzamide] belongs 2700 nM.

Staying with this experiment, now noted: Homo sapiens, MV4-11, 72 h, MV-4-11 cells, 72 h, Cell-Titer Glo; read-out: IC50.
Take `Cc1nnc(-c2ccc(C(=O)N(c3nccc4cc(-c5nccs5)cc(C)c34)[C@@H]3CCCNC3)c(F)c2)s1` (racemic) [Example 733, 2-fluoro-4-(5-methyl-1,3,4-thiadiazol-2-yl)-N-(8-methyl-6-thiazol-2-yl-1-isoquinolyl)-N-[rac-(3R)-3-piperidyl] benzamide]: the IC50 came to 46 nM. In the case of `Cn1cc(-c2ccc(C(=O)N(c3nccc4cccc(C=CCO)c34)[C@@H]3CCCNC3)cc2)nn1` (stereo in doubt) [Example 338, (R,Z)—N-(8-(3-hydroxyprop-1-en-1-yl)isoquinolin-1-yl)-4-(1-methyl-1H-1,2,3-triazol-4-yl)-N-(piperidin-3-yl)benzamide], the 50% inhibitory concentration (IC50) was above 10000 nM. Consider `O=C(c1ccc(-c2cnn3cccnc23)cc1)N(c1nccc2ccccc12)[C@@H]1CCCNC1` [Example 302, (R)—N-(isoquinolin-1-yl)-N-(piperidin-3-yl)-4-(pyrazolo[1,5-a]pyrimidin-3-yl)benzamide], for which the IC50 came out at 480 nM.

Regarding `Cn1ccc2ccnc(N(C(=O)c3ccc(-c4cnn5cccnc45)cc3)[C@@H]3CCCNC3)c21` [Example 303, (R)—N-(1-methyl-1H-pyrrolo[2,3-c]pyridin-7-yl)-N-(piperidin-3-yl)-4-(pyrazolo[1,5-a]pyrimidin-3-yl)benzamide], the IC50 came to 450 nM. Same read-out and setting: to `CN(C)C/C=C/C(=O)Nc1cccc(C2CCN(C(=O)N(c3nccc4ccn(C)c34)[C@@H]3CCCNC3)CC2)c1` [Example 304, (R,E)-4-(3-(4-(dimethylamino)but-2-enamido)phenyl)-N-(1-methyl-1H-pyrrolo[2,3-c]pyridin-7-yl)-N-(piperidin-3-yl)piperidine-1-carboxamide] belongs 37 nM; to `O=C(c1ccc(-n2nnc3cccnc32)cc1)N(c1ncccc1Cl)[C@@H]1CCCNC1` [Example 305, (R)-4-(3H-[1,2,3]triazolo[4,5-b]pyridin-3-yl)-N-(3-chloropyridin-2-yl)-N-(piperidin-3-yl)benzamide], 1600 nM; to `Cc1cc(-n2nnc3cccnc32)ccc1C(=O)N(c1nccc2cccc(C)c12)[C@@H]1CCCNC1` [Example 306, (R)-4-(3H-[1,2,3]triazolo[4,5-b]pyridin-3-yl)-2-methyl-N-(8-methylisoquinolin-1-yl)-N-(piperidin-3-yl)benzamide], 58 nM. On the same count and under the same terms, to `CCc1cc(-n2nnc3cccnc32)ccc1C(=O)N(c1nccc2cccc(C)c12)[C@@H]1CCCNC1` [Example 307, (R)-4-(3H-[1,2,3]triazolo[4,5-b]pyridin-3-yl)-2-ethyl-N-(8-methylisoquinolin-1-yl)-N-(piperidin-3-yl)benzamide] belongs 100 nM; to `COc1cc(-n2nnc3cccnc32)ccc1C(=O)N(c1nccc2cccc(C)c12)[C@@H]1CCCNC1` [Example 308, (R)-4-(3H-[1,2,3]triazolo[4,5-b]pyridin-3-yl)-2-methoxy-N-(8-methylisoquinolin-1-yl)-N-(piperidin-3-yl)benzamide], 25 nM. The same measure, in the same setting: to `Cc1cccc2ccnc(N(C(=O)c3ccc(Nc4ncccn4)cc3)[C@@H]3CCCNC3)c12` [Example 309, (R)—N-(8-methylisoquinolin-1-yl)-N-(piperidin-3-yl)-4-(pyrimidin-2-ylamino)benzamide] belongs 280 nM; to `Cc1cccc2ccnc(N(C(=O)c3ccc(-n4nnc5cccnc54)cc3Cl)[C@@H]3CCCNC3)c12` [Example 310, (R)-4-(3H-[1,2,3]triazolo[4,5-b]pyridin-3-yl)-2-chloro-N-(8-methylisoquinolin-1-yl)-N-(piperidin-3-yl) benzamide], 28 nM; to `Cc1cccc2ccnc(N(C(=O)c3ccc(N4CCOCC4)cc3F)[C@@H]3CCCNC3)c12` [Example 311, (R)-2-fluoro-N-(8-methylisoquinolin-1-yl)-4-morpholino-N-(piperidin-3-yl)benzamide], 23 nM. Regarding `Cc1cccc2ccnc(N(C(=O)c3ccc(-n4nnc5cccnc54)cc3C(F)(F)F)[C@@H]3CCCNC3)c12` [Example 312, (R)-4-(3H-[1,2,3]triazolo[4,5-b]pyridin-3-yl)-N-(8-methylisoquinolin-1-yl)-N-(piperidin-3-yl)-2-(trifluoromethyl)benzamide], the IC50 came to 2600 nM. As for `O=C(c1ccc(-n2nnc3cccnc32)cc1F)N(c1nccc2ccccc12)[C@@H]1CCCNC1` [Example 313, (R)-4-(3H-[1,2,3]triazolo[4,5-b]pyridin-3-yl)-2-fluoro-N-(isoquinolin-1-yl)-N-(piperidin-3-yl)benzamide], the IC50 came to 230 nM. Regarding `Cc1cccc2ccnc(N(C(=O)c3ccc(-c4cncs4)cc3F)[C@@H]3CCCNC3)c12` [Example 314, (R)-2-fluoro-N-(8-methylisoquinolin-1-yl)-N-(piperidin-3-yl)-4-(thiazol-5-yl) benzamide], the IC50 came out at 50 nM. On the same count and under the same terms, as for `Cc1cc(-c2ccc(C(=O)N(c3nccc4cccc(C)c34)[C@@H]3CCCNC3)c(F)c2)on1` [Example 316, (R)-2-fluoro-N-(8-methylisoquinolin-1-yl)-4-(3-methylisoxazol-5-yl)-N-(piperidin-3-yl) benzamide], the figure is 82 nM; as for `Cn1ccc2ccnc(N(C(=O)c3ccc(-n4nnc5cccnc54)cc3F)[C@@H]3CCCNC3)c21` [Example 317, (R)-4-(3H-[1,2,3]triazolo[4,5-b]pyridin-3-yl)-2-fluoro-N-(1-methyl-1H-pyrrolo[2,3-c]pyridin-7-yl)-N-(piperidin-3-yl)benzamide], 79 nM; as for `Cc1cccc2ccnc(N(C(=O)c3ccc(-c4cncc(C(N)=O)n4)cc3F)[C@@H]3CCCNC3)c12` [Example 318, (R)-6-(3-fluoro-4-((8-methylisoquinolin-1-yl)(piperidin-3-yl)carbamoyl)phenyl) pyrazine-2-carboxamide], 220 nM. Still for that read-out and setting: to `Cc1ccnc(Nc2ccc(C(=O)N(c3nccc4cccc(C)c34)[C@@H]3CCCNC3)c(F)c2)n1` [Example 319, (R)-2-fluoro-N-(8-methylisoquinolin-1-yl)-4-((4-methylpyrimidin-2-yl)amino)-N-(piperidin-3-yl)benzamide] belongs 66 nM; to `Cc1cccc2ccnc(N(C(=O)c3ccc(Nc4nccc(CO)n4)cc3F)[C@@H]3CCCNC3)c12` [Example 321, (R)-2-fluoro-4-((4-(hydroxymethyl)pyrimidin-2-yl)amino)-N-(8-methylisoquinolin-1-yl)-N-(piperidin-3-yl)benzamide], 780 nM. Still for that read-out and setting: as for `Cc1cccc2ccnc(N(C(=O)c3ccc(Nc4ncc(CO)cn4)cc3F)[C@@H]3CCCNC3)c12` [Example 322, (R)-2-fluoro-4-((5-(hydroxymethyl)pyrimidin-2-yl)amino)-N-(8-methylisoquinolin-1-yl)-N-(piperidin-3-yl)benzamide], the figure is 180 nM; as for `Cc1cc(-c2ccc(C(=O)N(c3nccc4cccc(C)c34)[C@@H]3CCCNC3)c(F)c2)[nH]n1` [Example 323, (R)-2-fluoro-4-(3-methyl-1H-pyrazol-5-yl)-N-(8-methylisoquinolin-1-yl)-N-(piperidin-3-yl) benzamide], 440 nM.

Regarding `O=C(c1ccc(-n2nnc3cccnc32)cc1F)N(c1nccc2cccnc12)[C@@H]1CCCNC1` [Example 325, (R)-4-(3H-[1,2,3]triazolo[4,5-b]pyridin-3-yl)-2-fluoro-N-(1,7-naphthyridin-8-yl)-N-(piperidin-3-yl)benzamide], the IC50 was found to be 1500 nM. The same measure, in the same setting: as for `Cc1cccc2ccnc(N(C(=O)c3ccc(-c4cnn(C)c4)c(-c4cnn(C)c4)c3)[C@@H]3CCCNC3)c12` [Example 326, (R)-3,4-bis(1-methyl-1H-pyrazol-4-yl)-N-(8-methylisoquinolin-1-yl)-N-(piperidin-3-yl) benzamide], the figure is 67 nM. On the same count and under the same terms, as for `Cc1cccc2ccnc(N(C(=O)c3ccc(C#N)c(-c4ccc(-c5cccnc5)cc4)c3)[C@@H]3CCCNC3)c12` [Example 328, 4-cyano-N-(8-methyl-1-isoquinolyl)-N-[(3R)-3-piperidyl]-3-[4-(3-pyridyl)phenyl]benzamide], the figure is 210 nM; as for `Cc1cccc2ccnc(N(C(=O)c3ccc(C#N)c(-c4cccc(-c5cn[nH]c5)c4)c3)[C@@H]3CCCNC3)c12` [Example 329, (R)-6-cyano-N-(8-methylisoquinolin-1-yl)-N-(piperidin-3-yl)-3′-(1H-pyrazol-4-yl)-[1,1′-biphenyl]-3-carboxamide], 72 nM.
